Laboratory results reported in ChEMBL document CHEMBL1130926, “Novel H3 receptor antagonists. Sulfonamide homologs of histamine” (Bioorg Med Chem Lett, 1998).
Active and inactive are the calls of the source. The calls are words filed in the database; no cut-off is given here.

Experiments:
[1] = target: T1, Histamine H3 receptor (Cavia porcellus, UniProt Q9JI35); assay: H3 -antagonist potency determined in electrically stimulated guinea-pig ileum; assay type: functional, tissue-based; details: read-out: pA2 (converted)
[2] = target: T1, Histamine H3 receptor; assay: Inhibition of [3H]Nalpha-methylhistamine binding to H3 receptor in guinea-pig brain membranes; assay type: cell membranes, Membrane
[3] = target: Histamine H1 receptor (Cavia porcellus, UniProt P31389); assay: Evaluated for the percent binding affinity against H1 receptor by an H1 histamine-mediated bronchospasm; set-up: concentration or dose not given beside the values
[4] = target: Histamine H3 receptor (Cavia porcellus) (UniProt Q9JI35); assay: Evaluated in vivo for its H3 receptor antagonist activity in the CNS hypertension model; assay type: functional, organism-based
[5] = target: Histamine H3 receptor (Cavia porcellus) (UniProt Q9JI35); assay: Evaluated in vivo for its H3 receptor antagonist activity in the CNS hypertension model at 3 mg/kg dose; assay type: functional, organism-based; set-up: dose 3 mg/kg
[6] = tested on: Cavia porcellus; assay: Compound was evaluated in vivo for its H3 receptor antagonist activity in the CNS hypertension model; NA: Not active; assay type: functional, organism-based

T1 sequence (Q9JI35 whole entry): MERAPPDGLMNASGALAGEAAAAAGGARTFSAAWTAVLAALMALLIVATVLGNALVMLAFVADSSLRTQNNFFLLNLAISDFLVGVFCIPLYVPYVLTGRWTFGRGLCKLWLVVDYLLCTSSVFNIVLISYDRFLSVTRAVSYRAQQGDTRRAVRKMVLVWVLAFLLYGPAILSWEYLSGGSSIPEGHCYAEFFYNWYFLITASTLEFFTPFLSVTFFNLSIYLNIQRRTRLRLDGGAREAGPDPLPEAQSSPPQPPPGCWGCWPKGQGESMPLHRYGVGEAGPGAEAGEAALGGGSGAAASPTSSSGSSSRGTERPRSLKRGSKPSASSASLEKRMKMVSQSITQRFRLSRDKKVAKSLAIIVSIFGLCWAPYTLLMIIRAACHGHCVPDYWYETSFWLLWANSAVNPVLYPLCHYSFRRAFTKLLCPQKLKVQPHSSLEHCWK
Chain of Histamine H3 receptor (Cavia porcellus) (Q9JI35 whole entry): as above
Chain of Histamine H1 receptor (P31389 whole entry): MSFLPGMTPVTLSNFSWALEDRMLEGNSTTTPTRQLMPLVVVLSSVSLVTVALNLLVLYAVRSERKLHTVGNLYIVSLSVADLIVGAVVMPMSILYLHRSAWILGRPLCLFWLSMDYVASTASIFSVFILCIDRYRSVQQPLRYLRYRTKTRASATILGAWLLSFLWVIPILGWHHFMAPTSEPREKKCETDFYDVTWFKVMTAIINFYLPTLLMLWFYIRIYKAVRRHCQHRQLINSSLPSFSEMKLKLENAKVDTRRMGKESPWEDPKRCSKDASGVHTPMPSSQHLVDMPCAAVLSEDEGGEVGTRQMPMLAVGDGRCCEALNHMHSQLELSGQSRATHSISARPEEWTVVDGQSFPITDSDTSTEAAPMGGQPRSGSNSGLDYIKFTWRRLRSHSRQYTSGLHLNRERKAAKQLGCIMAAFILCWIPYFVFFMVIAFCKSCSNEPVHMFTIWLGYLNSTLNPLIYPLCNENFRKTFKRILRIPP

Kb [1] [nM]	Ki [2] [nM]	inhibition [3] [%]	ED50 [4] [mg/kg]	Compound	inhibition [5] [%]	ED50 [6]
15.8	24	45	3	O=S(=O)(c1ccc(Cl)cc1)N(CCCCc1c[nH]cn1)Cc1ccc(Cl)cc1		
				Cc1ccc(S(=O)(=O)NCCCCc2c[nH]cn2)cc1	16	
	380	21		O=S(=O)(NCCCc1c[nH]cn1)c1ccc(Cl)cc1		
63.1	22			CC(C)S(=O)(=O)NCCCCc1cnc[nH]1		
	45.5	30		CC(C)(C)c1ccc(S(=O)(=O)NCCCc2c[nH]cn2)cc1		
10	5	14		CC(C)(C)c1ccc(S(=O)(=O)NCCCCCc2c[nH]cn2)cc1	40	
	550			O=S(=O)(NCCCc1cnc[nH]1)c1cccs1		
	93	36		O=[N+]([O-])c1ccc(S(=O)(=O)NCCCc2c[nH]cn2)cc1		
20	16.5			O=[N+]([O-])c1ccc(S(=O)(=O)NCCCCc2cnc[nH]2)cc1		
10	7			O=S(=O)(NCCCCc1c[nH]cn1)c1ccc(OC(F)(F)F)cc1		inactive
7.94	5.5	25	2.7	O=[N+]([O-])c1ccc(S(=O)(=O)NCCCCCc2c[nH]cn2)cc1		
		24		O=[N+]([O-])c1ccc(S(=O)(=O)NCCCCc2c[nH]cn2)cc1		inactive
7.94	2.5			O=S(=O)(c1ccc(Cl)cc1)N(CCCCc1c[nH]cn1)CCCCn1ccnc1		
3.98	10	1	3	O=S(=O)(NCCCCc1c[nH]cn1)c1ccc(C(F)(F)F)cc1		
10	24.3	1		O=S(=O)(NCCCCCc1c[nH]cn1)c1ccc(OC(F)(F)F)cc1		
15.8	16.5	32	3	CC(C)(C)c1ccc(S(=O)(=O)NCCCCc2c[nH]cn2)cc1		
	42			O=[N+]([O-])c1ccccc1CS(=O)(=O)NCCCCc1cnc[nH]1		

Compound	Kb [1] [nM]	Ki [2] [nM]	inhibition [3] [%]	ED50 [4] [mg/kg]	inhibition [5] [%]	ED50 [6]
O=S(=O)(NCCCCCc1c[nH]cn1)c1ccccc1	63.1	24.5	19			
O=S(=O)(NCCCCc1c[nH]cn1)c1ccc(Cl)cc1			48	2.2		
O=S(=O)(NCCCCc1cnc[nH]1)c1cccs1		45				
O=S(=O)(NCCCCCc1c[nH]cn1)c1ccc(Cl)cc1			37	3		
O=S(=O)(NCCCCc1c[nH]cn1)c1cccc(Cl)c1	50.1	8.5			8	
CN(CCCCc1c[nH]cn1)S(=O)(=O)c1ccc(Cl)cc1	5.01	4	32		43	
O=S(=O)(NCCCCc1cnc[nH]1)c1ccccc1	31.6	10.5				
O=S(=O)(NCCCCc1cnc[nH]1)c1ccc(Cl)cc1	12.6	9				
Cn1cc[n+](S(=O)(=O)NCCCCc2c[nH]cn2)c1		43				
O=S(=O)(NCCCCCc1cnc[nH]1)c1ccc(Cl)cc1	100	11.5				
Nc1ccc(S(=O)(=O)NCCCCc2c[nH]cn2)cc1		99				
O=S(=O)(Cc1ccccc1)NCCCCc1c[nH]cn1	31.6	6	3		17	
O=S(=O)(NCCCCc1c[nH]cn1)c1ccc(F)cc1	158	20.5	19			
Cc1ccc(S(=O)(=O)NCCCCc2cnc[nH]2)cc1	25.1	17				
O=S(=O)(NCCCCc1c[nH]cn1)c1ccccc1			5			inactive
COc1ccc(S(=O)(=O)NCCCCc2cnc[nH]2)cc1		51				
